Calls of active or inactive are those of the source. No cut-off for these calls is given here.
What was measured:
[1] = system: LoVo; experiment: Cell cycle arrest in human LoVo cells assessed as accumulation of cells at G2/M phase at 1 uM incubated for 72 hrs by PI staining based flow cytometric analysis (reference value: 22.2 %); format: functional
[2] = molecular target: T1, Protein cereblon/Serine/threonine-protein kinase ATR (Homo sapiens, UniProt Q13535+Q96SW2); experiment: PROTAC activity at CRBN/ATR in human LoVo cells assessed as induction of ATR degradation at 2.5 uM preincubated with AZD6738 for 4 hrs followed by compound addition and measured after 48 hrs by Western blot analysis; format: cell-based
[3] = molecular target: T1, Protein cereblon/Serine/threonine-protein kinase ATR; experiment: In vivo PROTAC activity at CRBN/ATR in BALB/c nude mouse xenografted with human LoVo cells assessed as reduction in ATR protein level administered intraperitoneally once daily for 15 days by Western blot analysis; format: functional, organism-based; settings: dose 12.5-25 mg/kg, route ip, time 15.0 day
[4] = molecular target: T2, Serine/threonine-protein kinase Chk1 (Homo sapiens) (UniProt O14757); experiment: Induction of CHK1 degradation in human LoVo cells at 0.16 to 10 uM incubated for 72 hrs by Western blot analysis; format: cell-based; settings: dose 0.16-10 µM
T2 sequence (whole entry): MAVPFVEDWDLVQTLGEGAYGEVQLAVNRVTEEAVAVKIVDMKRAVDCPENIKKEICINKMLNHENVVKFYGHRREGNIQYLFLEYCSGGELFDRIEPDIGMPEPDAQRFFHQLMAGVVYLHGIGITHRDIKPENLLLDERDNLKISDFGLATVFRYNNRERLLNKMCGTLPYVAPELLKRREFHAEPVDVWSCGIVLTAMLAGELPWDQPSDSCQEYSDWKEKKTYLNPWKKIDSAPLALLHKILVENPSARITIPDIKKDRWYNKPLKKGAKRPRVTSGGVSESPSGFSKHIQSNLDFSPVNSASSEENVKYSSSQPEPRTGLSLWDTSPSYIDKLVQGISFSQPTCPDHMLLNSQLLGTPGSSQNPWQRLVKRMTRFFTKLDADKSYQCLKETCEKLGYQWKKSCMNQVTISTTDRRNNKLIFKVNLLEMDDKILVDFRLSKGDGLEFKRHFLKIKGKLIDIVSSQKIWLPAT

[5] = molecular target: T1, Protein cereblon/Serine/threonine-protein kinase ATR; experiment: PROTAC activity at CRBN/ATR in human LoVo cells assessed as induction of ATR degradation measured after 72 hrs by Western blot analysis; format: cell-based
[6] = AUC (0 to infinity) in BALB/c nude mouse xenografted with human LoVo cells at 25 mg/kg, ip administered as single dose and measured after 12 hrs by LC-MS/MS analysis; format: ADME, organism-based; settings: in vivo
[7] = system: LoVo; experiment: Cell cycle arrest in human LoVo cells assessed as accumulation of cells at G2/M phase at 0.5 uM incubated for 72 hrs by PI staining based flow cytometric analysis (reference value: 22.2 %); format: functional
[8] = system: LoVo; experiment: Induction of apoptosis in human LoVo cells assessed as apoptotic rate at 0.5 uM incubated for 48 hrs by Annexin V-FITC/PI staining based flow cytometric analysis (reference value: 5.32 %); format: functional
[9] = Toxicity in BALB/c nude mouse xenografted with human LoVo cells assessed as effect on kidney at 12.5 to 25 mg/kg, ip administered twice daily for 15 days by H and E staining based analysis; format: organism-based; settings: in vivo, 360 h, dose 12.5-25 mg/kg, time 15 day
[10] = molecular target: T1, Protein cereblon/Serine/threonine-protein kinase ATR; experiment: PROTAC activity at CRBN/ATR in human LoVo cells assessed as induction of ATR degradation by measuring maximal efficacy after 72 hrs by Western blot analysis relative to control; format: cell-based
[11] = molecular target: T1, Protein cereblon/Serine/threonine-protein kinase ATR; experiment: In vivo PROTAC activity at CRBN/ATR in BALB/c nude mouse xenografted with human LoVo cells assessed as reduction in CHK1 phosphorylation at Ser345 residue administered intraperitoneally once daily for 15 days by Western blot analysis; format: functional, organism-based; settings: dose 12.5-25 mg/kg, route ip, time 15.0 day
[12] = system: LoVo; experiment: Cell cycle arrest in human LoVo cells assessed as accumulation of cells at S phase at 0.5 uM incubated for 72 hrs by PI staining based flow cytometric analysis (reference value: 25.5 %); format: functional
[13] = system: Mus musculus; experiment: Effect on CHK1 protein expression in BALB/c nude mouse xenografted with human LoVo cells at 12.5 to 25 mg/kg, ip administered once daily for 15 days by Western blot analysis; format: functional, organism-based; settings: dose 12.5-25 mg/kg, time 15.0 day
[14] = Toxicity in BALB/c nude mouse xenografted with human LoVo cells assessed as effect on spleen at 12.5 to 25 mg/kg, ip administered twice daily for 15 days by H and E staining based analysis; format: organism-based; settings: in vivo, 360 h, dose 12.5-25 mg/kg, time 15 day
[15] = system: LoVo; experiment: Cell cycle arrest in human LoVo cells assessed as accumulation of cells at G0/G1 phase at 0.5 uM incubated for 72 hrs by PI staining based flow cytometric analysis (reference value: 52.3 %); format: functional
[16] = system: LoVo; experiment: Antitumor activity against human LoVo cells xenografted in BALB/c nude mouse assessed as tumor growth inhibition at 12.5 mg/kg, ip administered […] for 15 days relative to control; format: functional; settings: 360 h, time 15 day, read-out: TGI
[17] = Toxicity in BALB/c nude mouse xenografted with human LoVo cells assessed as body weight loss at 12.5 mg/kg, ip administered once daily for 15 days in presence of cisplatin; format: organism-based; settings: in vivo, 360 h, time 15 day
[18] = Toxicity in BALB/c nude mouse xenografted with human LoVo cells assessed as body weight loss at 12.5 to 25 mg/kg, ip administered twice daily for 15 days; format: organism-based; settings: in vivo, 360 h, dose 12.5-25 mg/kg, time 15 day
[19] = molecular target: T1, Protein cereblon/Serine/threonine-protein kinase ATR; experiment: In vivo PROTAC activity at CRBN/ATR in BALB/c nude mouse xenografted with human LoVo cells assessed as reduction in ATR phosphorylation at Thr1989 residue administered intraperitoneally once daily for 15 days by Western blot analysis; format: functional, organism-based; settings: dose 12.5-25 mg/kg, route ip, time 15.0 day
[20] = molecular target: Serine/threonine-protein kinase ATR (Homo sapiens, UniProt Q13535); experiment: Inhibition of ATR phosphorylation at Thr1989 residue in human LoVo cells incubated for 72 hrs by Western blot analysis; format: cell-based; settings: dose 0.16-10 µM
[21] = system: LoVo; experiment: Cell cycle arrest in human LoVo cells assessed as accumulation of cells at S phase at 1 uM incubated for 72 hrs by PI staining based flow cytometric analysis (reference value: 25.5 %); format: functional
[22] = system: LoVo; experiment: Synergistic antitumor activity against human LoVo cells xenografted in BALB/c nude mouse assessed as tumor growth inhibition at 12.5 mg/kg, ip administered once daily for 15 days in presence of cisplatin relative to control; format: functional; settings: 360 h, time 15 day, read-out: TGI

In the case of `C[C@@H]1COCCN1c1cc(C2([S@@](C)(=O)=NC(=O)CCc3cn(CCCCCCCC(=O)Nc4cccc5c4C(=O)N(C4CCC(=O)NC4=O)C5=O)nn3)CC2)nc(-c2ccnc3[nH]ccc23)n1` (stereo partly drawn), the Activity [1] is reported as 13.4%, the Activity [2] is reported as “inactive” and the Activity [3] is reported as “Dose-Dependent Effect”. For the same molecule, the Activity [4] was “inactive”, the Activity [5] was “Dose-Dependent Effect” and the DC50 [5] was 530 nM. It also gave an AUC(0-inf) [6] of 4070 ng·h/mL, an Activity [7] of 19.7% and an Activity [8] of 23.91%. The Activity [9] was “Non-Toxic”, the Emax [10] was 84.3% and the Activity [11] was “Dose-Dependent Effect”. For the same molecule, the Activity [12] was 22.4%, the Activity [13] was “inactive” and the Activity [14] was “Non-Toxic”. For the same molecule, the Activity [15] was 57.9%, the inhibition in vivo at 12.5 mg/kg [16] was 39.5% and the Activity [17] was “Non-Toxic”. The Activity [18] was “Non-Toxic”, the Activity [19] was “Dose-Dependent Effect” and the inhibition [20] was “Dose-Dependent Effect”. The Activity [21] was 19.3% and the inhibition in vivo at 12.5 mg/kg [22] was 60.6%.

Source: ChEMBL document CHEMBL5576037, “Discovery of the first ataxia telangiectasia and Rad3-related (ATR) degraders for cancer treatment” (Eur J Med Chem, 2024)
